We go through four substances from US20080311122A1, “Antagonists of Hmgb1 and/or Rage and Methods of Use Thereof” (Medimmune, LLC, priority 2005, published 2008).

In general, pKd refers to the negative decadic logarithm of the Kd, by convention in mol/L.

The subject of one assay is pDCs. As to the kind of experiment: Stimulation of pDCs isolated from bone marrow, cytokine ELISA. It counts as cell-based, mouse. The conditions noted are these: 24 hr. From the text: Mice and Bone Marrow Cells: C57BL/6 mice were obtained from The Jackson Laboratories and maintained in specific pathogen-free conditions in conventional animal facilities at MedImmune, Inc. TLR9 deficient and MyD88 deficient mice and their litter mate controls were maintained in animal facility of University of Massachusetts Medical School. RAGE deficient mice generated were obtained from Heidelburg Germany and maintained at the University of Massachusetts Medical School. Fresh bone marrow cells were collected and pDCs were isolated from bone marrow cells using miltenyibiotec's plasmacytoid dendritic cell isolation kit. pDCs were re-suspended in Opti-MEM (Invitrogen) and stimulated […] cell/well for 24 hr and cytokine level in the supernatant was measured by ELISA.
(In general: In an ELISA, binding on a coated surface is turned into a signal by an enzyme label.)

A further assay deals with CpG A DNA. As to the kind of experiment: Tryptophan emission for CpG-A binding to HMGB1. The note with it: intrinsic tryptophan fluorescence; read-out: apparent Kd for CpG A DNA. On the procedure:
Tryptophan emission for CpG-A binding to HMGB1: Fluorescence titrations and spectra of HMGB-1 were carried out at 25° C. with a SPEX Fluoromax-3 spectrofluorimeter, monitoring the HMGB-1 intrinsic tryptophan emission at 347 nm (8 nm bandwidth) with 280 nm excitation (3 nm bandwidth) in a masked capped dual-pathlength (0.2×1.0 cm) quartz cell (Hellma Cells, Inc., Jamaica, N.Y.) upon stepwise addition of CpG-A (0.5 mM) to a 1.7 μM solution of HMGB-1 in 1:10 Dulbecco Phosphate Buffered Saline (PBS) solution (Invitrogen, Carlsbad, Calif.). Complex formation between HMGB-1 and the nucleic acid was monitored by the change in the initial fluorescence of the protein. HMGB-1 fractional saturation was inferred from the ratio of observed fluorescence change to maximal change (at saturation), Flim, for each of the nucleic acid additions. Binding affinity was calculated from graphs of relative fluorescence intensity versus [nucleic acid base]/[protein].The occluded binding site size (n) was derived from the intersection of the extrapolated initial slope with the limiting fluorescence plateau in the equilibrium binding isotherms. The measurements for assessment of Tryptophan emission are reviewed in detail in Lakowicz, 2000, Photochem. Photobiol. 72, 421-437.

The subject of the next assay is mouse macrophages. The assay is described as follows: TNF-a induction in mouse macrophages. It counts as cell-based. On the procedure:
TNF-a Induction: To examine mRNA levels macrophages were derived from mouse bone marrow using M-CSF. Macrophages were then stimulated by LPS, E. coli produced recombinant HMGB1 or HMGB1 purified from bovine thymus for indicated length of time and mRNA is measured by Taqman. To examine protein levels thioglycant activated mouse peritoneal macrophages were stimulated with 10 μg/mL of HMGB1 purified from bovine thymus or recombinant HMGB1 generated from E. coli for 24 hr. Cytokines in the supernatant were measured by ELISA.

In assay [1] the test system is native activated HMG1 stimulated IL-6 release from human PBMCs. As to the kind of experiment: Inhibition of cytokine release from PBMCs, native activated HMG1. It counts as cell-based. On the procedure:
Inhibition of Cytokine Release: Human peripheral blood mononuclear cells (PBMCs) were isolated from the peripheral blood of healthy volunteers by a density gradient centrifugation. Freshly drawn heparinized whole blood was mixed with two volume of PBS. The diluted blood was gently layered on the surface of Histopaque-1077 (Sigma-Aldrich) and centrifuged at 400×g, at RT for 30 minute. PBMCs were collected from the interface between the plasma and the density gradient solution. After washing in PBS 3×, the purified PBMCs were resuspended in RPMI-1640 medium (GIBCO BRL) containing 100 U/ml penicillin, 100 μg/ml streptomycin and […] β-mercaptoethanol. 1×10^5 of cells was added in each well of 96-well cell culture plates. […]
The culture media were analyzed for inflammatory cytokines using Beadlyte human multi-cytokine flex kit from Upstate by Luminex 100 (Luminex Corp.). Proinflammatory cytokines TNF-α, IL-6, IL-1β and IL-12 (p40) were measured for cells stimulated with recombinant HMG1. In addition, TNF-α, IL-6, IL-1β and IL-8 were measured for cells stimulated with native activated HMG1.
Cytokine release data is presented as mean of triplicates±standard deviations. […] It was calculated by PRISM program.

Assay [2] concerns CpG2216+thymus HMG1 induced IFN-a release (TLR9 signaling). The assay is described as follows: Inhibition of HMG1 mediated enhancement of TLR9 signaling, CpG2216 + thymus HMG1 in bone marrow cells. Format: cell-based. The conditions noted are these: mouse bone marrow cells. How it is done: HMGB1+TLR Ligand: Freshly isolated bone marrow cells were stimulated with TLR ligands (TLR3:PolyIC@5 μg/mL; TLR4:LPS@2.5 ng/mL; TLR5:flagellin@0.25 μg/mL; TLR7:polyU@4 μg/mL or R837@5 μg/mL; TLR9:CpG2216@1 μM) with or without presence of thymus HMGB1 (10 μg/mL) for 24 hr. Cytokines in the supernatant were measured by ELISA.
Inhibition of HMG1 Mediated Enhancement of TLR Signaling: Freshly isolated bone marrow cells were stimulated with TLR9 ligand CpG2216 (0.3 μM) and thymus HMGB1 (10 μg/mL) in the presence of different concentration of the anti-HMGB1 mAb E11 or control human IgG for 24 hr and IFN-a in the supernatant was measured by ELISA. CpG2216, HMGB1 and nonstimulatory DNA were used alone or in combination as controls for the assay.

In assay [3] the test system is LPS+HMG1 induced TNF-a release (TLR4 signaling). As to the kind of experiment: Inhibition of HMG1 mediated enhancement of TLR4 signaling, LPS+HMG1 TNF-a release. Format: cell-based, mouse.
The test system of assay [4] is AM14 B cells. The assay is described as follows: DNA immune complex and AM14 cell binding assay. It counts as cell-based, mouse. How it is done: DNA immune complex and AM14 cell binding assay DNA immune complexes were preformed by mixing spent culture supernatants with 15 μg/ml of PL2-3 (anti-nucleosome IgG2a). AM14 FcγRIIB−/− cells were incubated with a mixture of spent culture supernatants (CML sup.) and 15 μg/ml of PL2-3 (anti-nucleosome IgG2a) on ice. To analyze the effect of RAGE-Fc on the ability of the complexes to bind AM14 B cells, RAGE-Fc (or Fc control) was added to the immune complexes for an additional 2 h on ice. The chromatin immune complexes, or antibody alone, were added to 0.5×10^6 splenic purified AM14 FcγRIIB−/− B. HMGB1 in complexes was detected using an anti-HMGB1-Biotinylated antibody (MedImmune, Inc.) and PL2-3 was detected by an anti-IgG2a-FITC.

The subject of assay [5] is AM14 B cells. The assay is described as follows: AM14 proliferation assay. Format: cell-based, mouse. How it is done:
AM14 proliferation assay: Purified AM14 B cells were preincubated with RAGE-Fc or control human IgG1 for 30 min at 37° C., and stimulated with 0.1 μg/ml of PL2-3 for 24 h at 37° C. Cells were then pulsed with [^3H]thymidine for 6 h.

Assay [6] has as its system lupus plasma induced IFIT1 mRNA in human PBMCs. The assay is described as follows: IFIT1 mRNA induction in PBMCs by lupus plasma. It counts as cell-based. The conditions noted are these: 20% lupus plasma. How it is done: Human Cell Culture and Isolation: Fresh PBMCs from healthy donors were prepared by Ficoll-hypaque fractionation and cultured at a density of 2×10^5Cells/0.1 ml in 96-well flat-bottomed plates in culture medium. 20% of lupus plasma was incubated with PBMC for 24 hrs. Some wells included antibodies anti-HMGB1, RAGE Fc or human IgG together with lupus plasma. After 24 hrs, PBMCs were collected and lysed. Total RNA was purified using the 96-well Total RNA Purification Kit (Gentra, Minneapolis, Minn.). 11 μl of this RNA was reverse-transcribed to cDNA in a 20 μl reaction using SuperScript III RNase H-Reverse Transcriptase (Invitrogen, Carlsbad, Calif.). cDNA obtained from each sample was diluted 1:[…] was amplified in a 25 μl real-time PCR reaction using 0.4 μM of sense and antisense primers and the 2×iQ SYBR Green Supermix (Bio-Rad, Hercules, Calif.). GAPDH was used as a housekeeping gene control. Primer sequences for IFIG and GAPDH were: IFIT1 forward, 5′-[…]-3′ (SEQ ID NO: 111); IFIT1 reverse, 5′-AGTCAGCAGCCAGTCTCAG-3′ (SEQ ID NO: 112); GAPDH forward, 5′-CAACGGATTTGGTCGTATT-3′ (SEQ ID NO: 113); GAPDH reverse, 5′-[…]-3′ (SEQ ID NO: 114).

pKd: −log10 of the molar value. “Also recorded” adds a separate entry of the source.

In the assay with pDCs, 5′-GGGGGACGATCGTCGGGGGG-3′ [CpG DNA] yielded an IFN-α production of 32 ± 5 pg/mL and a TNF-α production of 43 ± 5 pg/mL.
With “HMGB1: HMGB1 purified from bovine thymus”, the pKd on CpG A DNA was 7.15. Also, the IFN-α production entry with pDCs is given as “ineffective”. Moreover, the “induction of TNF-a mRNA levels” value in the assay on mouse macrophages (2 hours, listed as native HMG1) is given as ~30 fold; in the assay with mouse macrophages (2 hours, listed as thymus HMG1) it was “roughly 30 fold”; in the assay on mouse macrophages (8 hour), ~15 fold. In the assay on mouse macrophages (24 hours, supernatant), the “increase in TNF-a protein levels” value was “no induction”.
“RAGE-Fc: RAGE-Fc fusion protein (soluble RAGE), RAGE antagonist”: the “block of IL-6 release induced by native activated HMG1” value in assay [1] is on record as “able to block IL-6 released induced by native activated HMG1”. In addition, the “inhibition of IFN-a release induced by CpG + thymus HMG1” value in assay [2] is “inhibit IFN-a release”; in assay [2] (listed as RAGE/Fc), “significantly blocked CpG/HMGB1 complex induced IFN-α”; in [2] (listed as Rage/Fc), “to a less extent; also recorded: inhibited the release of INF-a induced by CpG2216+thymus HMG1”. For the same substance, the “inhibition of IFN-a release induced by CpG alone” value in assay [2] (listed as RAGE/Fc) is listed as “did not block CpG-A induced IFN-α production”; in [2] (listed as Rage/Fc), “Neither E11, G4 or Rage/Fc inhibited”. Also, in [3], the “inhibition of TNF-a release induced by LPS+HMG1” value is on record as “inhibits the release of TNF-a induced by LPS+HMG1; also recorded: could be blocked; also recorded: inhibit the release of TNFa induced by LPS+HMG1”. The “inhibition of binding of chromatin/DNA immune complexes to AM14 B cells” value in the assay with AM14 B cells [4] is reported as “blocks binding of chromatin IC to AM14 B cells; also recorded: inhibited binding of HMGB1-containing DNA immune complexes to the surface of B cells”. Further, the “effect on TLR2, TLR4 ligand induced proliferation or BCR mediated B cell activation” value with AM14 B cells [5] is reported as “had no effect”. In addition, the “inhibition of DNA immune complex (PL2-3) dependent proliferation of AM14 B cells” value in the assay on AM14 B cells [5] (thymidine incorporation) is listed as “reduced proliferation; also recorded: markedly inhibited PL2-3-dependent proliferation of AM14 B cells”. For the same substance, the “inhibition of induction of IFIT1 mRNA by lupus plasma” value in [6] is on record as “approx 75%”.
In the case of “lipopolysaccharide [LPS, reference compound]”, the “induction of TNF-a mRNA levels” value in the assay on mouse macrophages (2 hours) is ~66 fold; with mouse macrophages (8 hour), ~7 fold.
